This is an account of results in patent US9879013B2, “Purinone derivative” (ONO PHARMACEUTICAL CO., LTD., priority 2010, dated 2018).

For one data set, the target named is LynA (Homo sapiens (Human), UniProt P07948). Kind of data set: LynA inhibitory activity, selectivity for Btk (Z'-LYTE kinase assay). The data set is classed as biochemical. Conditions: ratio of the IC50 values of the individual kinases. The protocol:
(§1) The inhibitory activity for other kinases (for example, Lck, Fyn, and LynA (all from Invitrogen Corporation) was measured in the same manner as described above using the particular kinase in place of the Btk.

The target of the next data set is Human CYP2C19 (Homo sapiens (Human), UniProt P33261). Kind of data set: Inhibitory action on human CYP2C19. The data set is classed as in vitro ADME. As for the experimental part:
(§2) Measurement of the Inhibitory Activity on Drug-Metabolizing Enzymes (Inhibitory Action on Human CYP2C8 and Human CYP2C19)
The reaction was carried out in a 96-well plate. The positive control substances (CYP2C8: ketoconazole, CYP2C19: tranylcypromine) were adjusted (CYP2C8: 0.6 and 6 mmol/L, CYP2C19: 0.9 and 9 mmol/L) with DMSO to concentrations that were 300 times the final concentration, and solutions were prepared (CYP2C8: 8 and 80 μmol/L, CYP2C19: 12 and 120 μmol/L) by 75× dilution with purified water that contained 2.7% acetonitrile. The test compounds were adjusted to […] with DMSO and were adjusted to 4 and 40 μmol/L by 75× dilution with purified water that contained 2.7% acetonitrile. A reaction mixture was then prepared (the numerical values are final concentrations) by the addition of potassium phosphate buffer (pH 7.4), magnesium chloride ([…]), substrate (CYP2C8: dibenzylfluorescein 1 μmol/L, CYP2C19: 3-cyano-7-ethoxycoumarin 25 μmol/L), and E. coli-expressed liver microsome CYP2C8 (Cypex, 10 pmol/L) and CYP2C19 (Cypex, 3 pmol/L). 100 μL of this reaction mixture and 50 μL of the test compound prepared as described above and the positive control solution prepared as described above were dispensed into each well and pre-incubation was carried out at 10 minutes for 37° C. The reaction was started by the addition of 50 μL NADPH solution (final concentration=1 mmol/L) and incubation was carried out for 30 minutes at 37° C. The fluorescence intensity was measured (CYP2C8: excitation wavelength=485 nm, fluorescence wavelength=538 nm; CYP2C19: excitation wavelength=409 nm, fluorescence wavelength=460 nm) immediately after the addition of the NADPH and after incubation for 30 minutes.

For data set [1], the system named is T cells (CD3-positive CD20-negative cells) of human PBMC. The experiment in a line: T cell activation using human PBMC (CD69-positive signal, FACS). The data set is classed as cell-based. As to conditions: anti-CD3/CD28 antibody beads, 16 hours. As for the experimental part:
(§3) Measurement of B Cell Activation or T Cell Activation Using Human PBMC
(§4) A 10 mmol/L solution of the test compound in DMSO was dispensed into a 96-well plate (Nunc) and a 5× dilution series was prepared using DMSO. A 100× concentration test compound dilution solution was prepared by an additional 10× dilution with RPMI1640 medium (contained 10% HI-FBS, 1% penicillin). Human peripheral blood mononuclear cells (PBMC) were diluted with the medium to provide a density of 2×10^6 cells/mL. 396 μL of the cell suspension was added to a 96-well plate into which 4 μL of the 100× concentration test compound dilution solution or the solvent (10% DMSO) had already been introduced and incubation was performed for 10 minutes at 37° C. and 5% CO2. 10 μL of an anti-IgM antibody (Southern Biotech)/IL-4 (R & D Systems) solution or an anti-CD3/CD28 antibody bead suspension (Invitrogen Corporation) was added to a 96-well plate and 90 μL of the cell suspension prepared as described above was also added (final concentrations: anti-IgM antibody=1 μg/mL, IL-4=3 ng/mL, and anti-CD3/CD28 antibody beads=2×10^6 beads/mL). 10 μL of the medium was added to the unstimulated sample wells in place of these stimulating substances, and standing at 37° C. and 5% CO2 was again performed. Incubation was carried out for 16 hours in the case of the evaluation of T cell activation and for 22 hours in the case of the evaluation of B cell activation. 100 μL Cytofix Buffer (BD Biosciences) was added; holding for 15 minutes at 37° C. was performed; centrifugation for 10 minutes at 1500 rpm was carried out; and the supernatant was removed. 200 μL of Perm buffer II (BD Biosciences) at −20° C. was added; holding for 30 minutes on ice was performed; centrifugation for 10 minutes at 1500 rpm was carried out; and the supernatant was removed. 0.5 mL Stain buffer (BD Biosciences) was added and centrifugation was carried out for 10 minutes at 1500 rpm. 100 μL of a mixed antibody solution was added and incubation was performed for 30 minutes on ice in the dark. The antibody was the 10× dilution with Stain Buffer of the 1:1:1 mixture of PerCP-labeled anti-CD3 antibody (BD Biosciences), AF488-labeled anti-CD20 antibody (BD Biosciences), and PE-labeled anti-CD69 antibody (BD Biosciences). 0.4 mL Stain Buffer was added and the supernatant was removed. […] The CD69-positive signal (average fluorescence intensity) of the CD20-positive CD3-negative cells (B cells) or CD3-positive CD20-negative cells (T cells) was measured. After subtracting the value for the unstimulated sample, the % inhibition with reference to the value for the stimulated control sample was determined. The % inhibition was graphically plotted using Prism (ver. 5.01 J, GraphPad Software) and the IC50 value was determined.

The next data set has as its target Btk (Homo sapiens (Human), UniProt Q06187). The experiment in a line: Btk enzyme inhibitory activity (Z'-LYTE Kinase Assay Kit-Tyr1 peptide). The data set is classed as biochemical. As to conditions: Tyr-1 peptide 4 μM, Btk 5 nM, ATP 36 μM, 1 hour at 30° C. The protocol: The Btk enzyme inhibitory activity was measured, based on the protocol provided by the manufacturer, using Btk (Invitrogen Corporation) and the Z′-LYTE® Kinase Assay Kit-Tyr1 peptide (Invitrogen Corporation), which contained the following reagents: Tyr-1 peptide, Thy-1 phosphopeptide, 5× kinase buffer, ATP, development reagent B, development buffer, and stop reagent.
5 μL/well of a solution of the test compound diluted with dimethyl sulfoxide (DMSO), or DMSO, and 10 μL/well of the substrate/enzyme mixture solution were dispensed to a 96-well assay plate and a reaction was carried out for 20 minutes at 30° C. […] The enzymatic reaction was then stopped by adding 10 μL of the stop solution.
The percent inhibition (%) by the test compound was calculated using the following equation. percent inhibition (%) of phosphorylation=1−{(AC−AX)/(AC−AB)}×100 [E1]

Data set [2] concerns B cells (CD20-positive CD3-negative cells) of human PBMC. The experiment in a line: B cell activation using human PBMC (CD69-positive signal, FACS). The data set is classed as cell-based. As to conditions: anti-IgM antibody 1 μg/mL / IL-4 3 ng/mL, 22 hours. The protocol:
as §3, §4

The target in another data set is Human CYP2C8 (Homo sapiens (Human), UniProt P10632). The experiment in a line: Inhibitory action on human CYP2C8. The format is in vitro ADME. The protocol: as §2
The reaction was carried out in a 96-well plate. […] 100 μL of this reaction mixture and 50 μL of the test compound prepared as described above and the positive control solution prepared as described above were dispensed into each well and pre-incubation was carried out at 10 minutes for 37° C. The reaction was started by the addition of 50 μL NADPH solution (final concentration=1 mmol/L) and incubation was carried out for 30 minutes at 37° C.

The next data set addresses Lck (Homo sapiens (Human), UniProt P06239). The experiment in a line: Lck inhibitory activity, selectivity for Btk (Z'-LYTE kinase assay). The format is biochemical. Conditions: ratio of the IC50 values of the individual kinases. As for the experimental part: as §1
The target of the next data set is Fyn (Homo sapiens (Human), UniProt P06241). Kind of data set: Fyn inhibitory activity, selectivity for Btk (Z'-LYTE kinase assay). The format is biochemical. Conditions: ratio of the IC50 values of the individual kinases. As for the experimental part:
as §1

Data set [3] has as its system Human liver cells. The experiment in a line: Cytotoxicity in cultured human hepatoma cells (ATP concentration, Celltiter Glo). As to conditions: 50% decline in ATP concentration, exposure for 24 hours, read-out: Toxicity for human liver cells (IC50 (μM)). The data set is classed as cell-based. As for the experimental part: (§5) Measurement of the Cytotoxicity and Ability to Reduce the Mitochondrial Membrane Potential in Cultured Human Hepatoma Cells
(§6) Human liver cells were seeded into a collagen-coated 96-well plate at a cell density of 30,000 cells/well and incubation was carried out overnight in an incubator at 37° C. in 5% CO2-95% air. The cultured cells were stained for 1 hour with 5,5′,6,6′-tetrahydro-1,1′,3,3′-tetramethyl-benzamidazolocarbocyanine iodide (JC-1) followed by treatment with the test compound. The test compound was dissolved in DMSO and then diluted with the liquid culture medium Hepatocyte Culture Medium (HCM) and added to the cells. The test compound treatment concentrations were 0, 6.25, 12.5, 25, 50, 100, 200, and 400 μmol/L. After exposure to the test compound for 24 hours, measurement was performed with a SpectraMax plate reader (Molecular Devices, LLC) at an excitation wavelength of 485 nm and a fluorescence wavelength of 538 nm and an excitation wavelength of 544 nm and a fluorescence wavelength of 590 nm. The membrane potential was determined by the ratio between the 544 nm/590 nm measurement value and the 485 nm/538 nm measurement value. After this, the ATP concentration in the cells was measured using a Celltiter Glo luminescent assay kit (Promega Corporation) in order to evaluate the cell toxicity of the test compound. The cells were lysed by the assay buffer provided with the measurement kit and the concentration of the ATP released from the cells was measured using the luciferin-luciferase enzyme activity as the index. The emission was measured using a SpectraMax plate reader. […] The ability to lower the mitochondrial membrane potential of the test compounds and the cytotoxicity of the test compounds are given in Table 3 below.
(In general: In ATP-based viability assays light output follows the ATP content of the culture.)

Data set [4] relates to Human liver cells. Kind of data set: Ability to reduce the mitochondrial membrane potential in cultured human hepatoma cells (JC-1). As to conditions: JC-1, exposure for 24 hours, read-out: Ability to lower the mitochondrial membrane potential (IC50 (μM)). The data set is classed as cell-based.
Source text: as §5
Tissue that maintains an aerobic equilibrium, e.g., the kidneys and heart, and tissue that is exposed to high drug concentrations and carries out drug metabolism, e.g., the liver, are known to be sensitive to mitochondrial dysfunction (Drug Discovery Today, 12 (17-18), 777-785, 2007). The reduction or extinction of the mitochondrial membrane potential by a drug is caused by the direct inhibition of the electron transport system, decoupling of electron transport from ATP synthase, or the opening of a mitochondrial membrane permeability transition pore. As a consequence, measurement of the mitochondrial membrane potential of liver cells can provide a parameter for hepatotoxicity.
as §6

A short description of data set [5]: Stability in the rat liver microsome. Conditions: 0.5 mg/mL microsomes, NADPH, 15 minutes at 37° C.
Protocol: (§7) Evaluation of the Stability in the Rat and Human Liver Microsome
(§8) A 0.25 mmol/L solution was prepared by diluting the test compound (10 mmol/L DMSO solution, 5 μL) with an aqueous 50% acetonitrile solution (195 μL).
(§9) 20 μL was collected immediately after the start and the reaction was stopped by the addition to 180 μL of acetonitrile that contained an internal standard (warfarin). 20 μL of this solution was stirred with 180 μL of an aqueous 50% acetonitrile solution on a filter plate for protein depletion followed by suction filtration, and the filtrate was used as the standard sample.
(§10) The previously indicated reaction solution was incubated for 15 minutes at 37° C., and 20 μL was then added to 180 μL cold acetonitrile (contained the internal standard warfarin) to stop the reaction. 20 μL of this was stirred with 180 μL of an aqueous 50% acetonitrile solution on a filter plate for protein depletion followed by suction filtration, and the filtrate was used as the standard sample.
Data set [6] in a line: Stability in the human liver microsome. As to conditions: 0.5 mg/mL microsomes, NADPH, 15 minutes at 37° C. In general terms: Liver microsomes are a subcellular fraction often used to study metabolism.
Protocol: as §7, §8, §9, §10

Where only a bound is given, the exact number is not on record here.

Chain of Btk (Q06187 whole entry): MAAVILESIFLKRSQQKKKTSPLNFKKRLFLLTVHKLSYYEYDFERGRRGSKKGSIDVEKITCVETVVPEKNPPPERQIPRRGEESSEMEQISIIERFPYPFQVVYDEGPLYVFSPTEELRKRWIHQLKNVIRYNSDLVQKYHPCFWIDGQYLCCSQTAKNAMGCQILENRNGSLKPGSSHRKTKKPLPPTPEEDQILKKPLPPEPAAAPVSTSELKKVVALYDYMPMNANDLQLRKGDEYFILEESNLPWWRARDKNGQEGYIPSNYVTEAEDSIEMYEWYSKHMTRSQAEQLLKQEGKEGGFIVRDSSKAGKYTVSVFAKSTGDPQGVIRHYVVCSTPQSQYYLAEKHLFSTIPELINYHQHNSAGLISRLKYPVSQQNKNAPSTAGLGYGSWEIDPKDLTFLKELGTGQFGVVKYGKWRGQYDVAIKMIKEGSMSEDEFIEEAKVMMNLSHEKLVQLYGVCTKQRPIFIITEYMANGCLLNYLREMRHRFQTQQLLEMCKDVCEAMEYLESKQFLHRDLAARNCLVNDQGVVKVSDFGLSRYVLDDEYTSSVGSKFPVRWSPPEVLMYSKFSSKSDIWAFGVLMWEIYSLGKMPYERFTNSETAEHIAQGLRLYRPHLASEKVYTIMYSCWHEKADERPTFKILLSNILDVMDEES
Chain of Human CYP2C19 (P33261 whole entry): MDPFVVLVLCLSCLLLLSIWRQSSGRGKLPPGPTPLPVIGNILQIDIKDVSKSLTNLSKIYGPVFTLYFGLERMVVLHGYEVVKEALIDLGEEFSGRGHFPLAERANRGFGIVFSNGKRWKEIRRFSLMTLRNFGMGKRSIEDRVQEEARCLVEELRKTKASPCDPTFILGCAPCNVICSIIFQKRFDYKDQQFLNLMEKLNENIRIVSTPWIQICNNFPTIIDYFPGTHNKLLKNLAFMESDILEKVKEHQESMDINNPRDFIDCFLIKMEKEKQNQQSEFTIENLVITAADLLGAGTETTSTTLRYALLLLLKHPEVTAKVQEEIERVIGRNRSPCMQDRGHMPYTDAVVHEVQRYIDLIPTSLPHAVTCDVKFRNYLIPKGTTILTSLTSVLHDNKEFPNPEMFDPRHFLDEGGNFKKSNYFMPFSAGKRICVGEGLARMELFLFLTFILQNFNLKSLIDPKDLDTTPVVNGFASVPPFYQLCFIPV
Chain of Human CYP2C8 (P10632 whole entry): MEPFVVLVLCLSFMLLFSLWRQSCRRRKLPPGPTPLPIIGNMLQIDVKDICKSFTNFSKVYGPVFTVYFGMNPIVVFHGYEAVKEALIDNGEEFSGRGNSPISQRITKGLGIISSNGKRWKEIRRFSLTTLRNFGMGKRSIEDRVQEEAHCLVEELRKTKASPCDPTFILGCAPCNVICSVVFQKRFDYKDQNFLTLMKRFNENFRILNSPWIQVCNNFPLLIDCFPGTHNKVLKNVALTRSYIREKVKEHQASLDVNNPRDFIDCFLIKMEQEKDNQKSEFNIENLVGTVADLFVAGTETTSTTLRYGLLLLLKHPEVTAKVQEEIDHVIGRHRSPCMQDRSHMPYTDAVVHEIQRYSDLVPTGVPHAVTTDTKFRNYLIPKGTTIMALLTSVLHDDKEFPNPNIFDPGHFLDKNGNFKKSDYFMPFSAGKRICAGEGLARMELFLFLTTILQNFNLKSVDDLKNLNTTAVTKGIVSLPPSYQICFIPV
Chain of Fyn (P06241 whole entry): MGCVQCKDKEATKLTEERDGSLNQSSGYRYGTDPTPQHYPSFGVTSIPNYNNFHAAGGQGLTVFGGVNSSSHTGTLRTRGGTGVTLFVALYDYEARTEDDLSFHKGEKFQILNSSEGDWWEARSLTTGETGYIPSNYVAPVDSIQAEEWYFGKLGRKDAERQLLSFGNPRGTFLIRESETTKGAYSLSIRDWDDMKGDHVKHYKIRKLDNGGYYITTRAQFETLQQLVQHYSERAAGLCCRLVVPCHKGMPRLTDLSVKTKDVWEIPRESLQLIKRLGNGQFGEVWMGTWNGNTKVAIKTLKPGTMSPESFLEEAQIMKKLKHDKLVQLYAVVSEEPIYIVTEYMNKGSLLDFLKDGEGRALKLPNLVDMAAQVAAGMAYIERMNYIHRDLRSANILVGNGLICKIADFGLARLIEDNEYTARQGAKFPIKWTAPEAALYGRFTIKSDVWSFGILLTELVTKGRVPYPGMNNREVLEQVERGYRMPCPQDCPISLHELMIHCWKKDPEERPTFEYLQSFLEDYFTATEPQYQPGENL
Chain of LynA (P07948 whole entry): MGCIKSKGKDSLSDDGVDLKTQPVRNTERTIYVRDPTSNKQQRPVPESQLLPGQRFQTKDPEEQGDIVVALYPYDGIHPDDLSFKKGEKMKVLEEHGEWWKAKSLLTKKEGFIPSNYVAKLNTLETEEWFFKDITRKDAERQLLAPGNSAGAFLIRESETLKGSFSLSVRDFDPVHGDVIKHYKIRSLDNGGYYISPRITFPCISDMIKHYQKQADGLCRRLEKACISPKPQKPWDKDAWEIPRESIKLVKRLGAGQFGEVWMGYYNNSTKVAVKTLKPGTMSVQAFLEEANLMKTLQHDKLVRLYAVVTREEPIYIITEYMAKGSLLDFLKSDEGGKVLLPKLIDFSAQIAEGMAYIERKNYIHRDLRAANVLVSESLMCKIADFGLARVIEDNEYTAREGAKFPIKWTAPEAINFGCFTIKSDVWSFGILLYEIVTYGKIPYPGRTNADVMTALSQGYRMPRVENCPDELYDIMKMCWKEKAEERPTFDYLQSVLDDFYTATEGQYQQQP
Chain of Lck (P06239 whole entry): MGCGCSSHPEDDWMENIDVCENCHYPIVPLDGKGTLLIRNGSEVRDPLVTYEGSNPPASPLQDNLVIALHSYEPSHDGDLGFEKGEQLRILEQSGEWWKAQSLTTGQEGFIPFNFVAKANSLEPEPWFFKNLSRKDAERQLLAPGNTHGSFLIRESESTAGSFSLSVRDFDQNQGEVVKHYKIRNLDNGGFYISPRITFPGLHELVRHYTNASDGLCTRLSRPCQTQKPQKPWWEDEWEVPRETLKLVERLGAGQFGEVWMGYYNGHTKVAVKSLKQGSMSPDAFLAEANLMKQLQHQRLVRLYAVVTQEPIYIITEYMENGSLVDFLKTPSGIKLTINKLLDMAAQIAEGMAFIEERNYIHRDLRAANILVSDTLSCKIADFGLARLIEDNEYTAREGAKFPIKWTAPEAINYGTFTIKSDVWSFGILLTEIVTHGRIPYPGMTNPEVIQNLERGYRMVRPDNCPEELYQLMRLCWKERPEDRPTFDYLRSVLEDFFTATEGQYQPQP

Usually IC50 stands for the concentration needed to halve the response being measured. For the molecule `C=CC(=O)N1CCC(Cn2c(=O)n(-c3ccc(Oc4ccccc4)cc3)c3c(N)ncnc32)CC1` [Example 8(14), 9-[(1-acryloyl-4-piperidinyl)methyl]-6-amino-7-(4-phenoxyphenyl)-7,9-dihydro-8H-purin-8-one], the “LynA[IC50]/Btk[IC50]” value on LynA is 1767. Further, the concentration for half-maximal inhibition (IC50) against Human CYP2C19 was over 10 µM; in data set [1] it was over 10 µM; at Btk it was 0.004 µM; in [2] it was 0.023 µM; at Human CYP2C8, over 10 µM. Moreover, the “Lck[IC50]/Btk[IC50]” value at Lck is given as 220. Also, on Fyn, the “Fyn[IC50]/Btk[IC50]” value was 2500.

For the molecule `CN(C)C/C=C/C(=O)N1CC[C@@H](n2c(=O)n(-c3ccc(Oc4ccccc4)cc3)c3c(N)ncnc32)C1` [Example 11(3), 6-amino-9-{(3R)-1-[(2E)-4-(dimethylamino)-2-butenoyl]-3-pyrrolidinyl}-7-(4-phenoxyphenyl)-7,9-dihydro-8H-purin-8-one], the “LynA[IC50]/Btk[IC50]” value at LynA was 143. Besides, the IC50 against Human CYP2C19 is over 10 µM; in [1] it was over 10 µM; on Btk it was 0.014 µM; in data set [2], 0.032 µM; against Human CYP2C8, over 10 µM. Further, the “Lck[IC50]/Btk[IC50]” value at Lck worked out at 19. On Fyn, the “Fyn[IC50]/Btk[IC50]” value is 236.

Take `C=CC(=O)N1CCC[C@@H](n2nc(-c3ccc(Oc4ccccc4)cc3)c3c(N)ncnc32)C1` [Comparative compound A, reference compound]: the figures for the IC50 in the data set with Human liver cells [3], against Human CYP2C19 and with Human liver cells [4] were 78 µM, 5.6 µM and 39 µM, respectively.

On to `CC#CC(=O)N1CC[C@@H](n2c(=O)n(-c3ccc(Oc4ccccc4)cc3)c3c(N)ncnc32)C1` [Example 19(2), 6-amino-9-[(3R)-1-(2-butynoyl)-3-pyrrolidinyl]-7-(4-phenoxyphenyl)-7,9-dihydro-8H-purin-8-one], for which the IC50 was 135 µM in the data set on Human liver cells [3]; over 10 µM at Human CYP2C19; over 10 µM in [1]; 0.061 µM in data set [2]; over 10 µM on Human CYP2C8; 200 µM in the data set with Human liver cells [4].

Consider `CC#CC(=O)N1CC[C@@H](n2c(=O)n(-c3ccc(C(=O)c4ccccc4)cc3)c3c(N)ncnc32)C1` [Example 19(40), 6-amino-7-(4-benzoylphenyl)-9-[(3R)-1-(2-butynoyl)-3-pyrrolidinyl]-7,9-dihydro-8H-purin-8-one], for which it took 0.011 µM to reach half-maximal inhibition at Btk (IC50).

`CN(C)C/C=C/C(=O)N1CCC(n2c(=O)n(-c3ccc(Oc4ccccc4)cc3)c3c(N)ncnc32)C1` (centres unmarked) [Example 11(24), 6-amino-9-{1-[(2E)-4-(dimethylamino)-2-butenoyl]-3-pyrrolidinyl}-7-(4-phenoxyphenyl)-7,9-dihydro-8H-purin-8-one]: the concentration for half-maximal inhibition (IC50) is 213 µM in the data set with Human liver cells [3] and 347 µM in the data set on Human liver cells [4]. The “Residual ratio (%) in the rat liver microsome” value in [5] was 88.5%. Besides, the “Residual ratio (%) in the human liver microsome” value in data set [6] came to 100%.

For the molecule `CC#CC(=O)N1CCC(n2c(=O)n(-c3ccc(Oc4ccccc4)cc3)c3c(N)ncnc32)C1` (centres unmarked) [Example 19(9), 6-amino-9-[1-(2-butynoyl)-3-pyrrolidinyl]-7-(4-phenoxyphenyl)-7,9-dihydro-8H-purin-8-one], the IC50 turned out to be 97 µM in the data set with Human liver cells [3] and 181 µM in the data set on Human liver cells [4].
